Assays:
[1] = target: T1, Ca^2+ uniporter (Homo sapiens, UniProt Q8NE86); assay: Ca^2+ uniporter assay, digitonin-permeabilized suspended HepG2 cells, Calcium-Green-5N on FLIPR, ICMA added between two Ca^2+ pulses; assay type: cell-based; details: 5 micrograms/milliliter oligomycin, 2 micromolar rotenone, 1 micromolar FCCP; for release of sequestered Ca^2+ from mitochondria after addition of the agent: added about 3 min after first 12 micromolar Ca^2+ pulse, thapsigargin present; for mitochondrial uptake of the second Ca^2+ pulse: second Ca^2+ pulse at about t=6 min, 1 micromolar RU360
T1 construct: The effects of several intracellular Ca^2+ modulating agents (ICMAs) on permeabilized HepG2 cells were examined; endogenous in cells; host or cells: HepG2 (ATCC HB-8065), digitonin-permeabilized, in suspension
T1 sequence (Q8NE86 51-351): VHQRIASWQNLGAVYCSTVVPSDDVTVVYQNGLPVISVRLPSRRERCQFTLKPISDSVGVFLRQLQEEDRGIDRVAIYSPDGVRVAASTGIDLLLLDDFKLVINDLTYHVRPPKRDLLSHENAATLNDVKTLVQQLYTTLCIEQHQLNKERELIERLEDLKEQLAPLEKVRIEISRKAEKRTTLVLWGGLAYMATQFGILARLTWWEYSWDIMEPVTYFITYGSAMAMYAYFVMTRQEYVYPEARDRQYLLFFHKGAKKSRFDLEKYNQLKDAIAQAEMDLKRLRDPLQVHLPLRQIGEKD
T1 sequence (Q9H4I9 48-107 partner limits assumed): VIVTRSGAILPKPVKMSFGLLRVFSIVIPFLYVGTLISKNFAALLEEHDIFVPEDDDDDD
Procedure: A master mix solution (MM Solution) was prepared by the addition of glutamate and malate to final concentrations of 5 millimolar each, MgCl2 to a final concentration of 1 millimolar, EGTA to a final concentrations of 0 to 8 micromolar, and Calcium-Green-5N to a final concentration of 0.1 to 1.0 micromolar, to a basic KCl-based respiratory media (“BReM”) that is described in Table 3. […] The hexapotassiun salt Calcium-Green-5N (Molecular Probes, Eugene, Oreg.) in the MM Solution is a fluorescent dye that has low binding affinity to Ca^2+.
Thapsigargin (Calbiochem, San Diego, Calif.), a Ca^2+ uptake inhibitor of the endoplasmic reticulum (ER), was added to the MM Solution to a final concentration of 1 micromolar to yield a solution designated “MM-T” (i.e., Master Mix with Thapsigargin).
The cell membrane permeabilizing agent digitonin (Sigma, St. Louis, Mo.) was added to MM-T to a final concentration of from about 0.007% to about 0.03% to yield a solution referred to as “MM-TD” (i.e., Master Mix with Thapsigargin and digitonin. CaCl2 was added to MM-T to provide a solution with a determined final concentration of Ca^2+ for the determination of intracellular Ca^2+ flux.
The effects of several intracellular Ca^2+ modulating agents (ICMAs) on permeabilized HepG2 cells were examined as follows. The mitochondrial respiratory inhibitors oligomycin (Calbiochem, San Diego, Calif.) and rotenone (Calbiochem) were added to MM-T to final concentrations of 50 micrograms/milliliter and 20 micromolar, respectively. The uncoupler FCCP was similarly added to MM-T to a 10× concentration (10 micromolar) to yield a stock solution of FCCP, MM-TF (i.e., Master Mix with Thapsigargin and FCCP). The ICMA Ru360, which blocks Ca^2+ uptake into the mitochondria by the calcium uniporter, was added to MM-T to a concentration of 100 micromolar to yield MM-T360 (i.e., Master Mix with Thapsigragin and Ru360). CaCl2 was added to MM-T to yield a 10× solution of CaCl2 (120 micromolar) in MM-T.
HepG2 cells were cultured in Eagle's minimal essential medium (MEM) with non-essential amino acids, sodium pyruvate and Earle's balanced salt solution (BSS), 90%; fetal bovine serum (FBS), 10%. Cells were centrifuged (500×g) and the growth media was aspirated from the pellet. The HepG2 cells were resuspended in MM-TD at a concentration of 1×10^7 cells/milliliter, and 100 microliters of the resuspended permeabilized cells were dispensed into wells of a 96-well Costar 3603 microplate. The plate was placed into a FLIPR™ prewarmed to 37° C. MM-T, 120 micromolar Ca^2+, was dispensed into the cell-containing wells at a volume of 11.1 microliters, yielding a final assay concentration of 12 micromolar Ca^2+. The addition of Ca^2+ at this stage of the assay is referred to as the first calcium pulse and the time at which Ca^2+ is added is designated t=0.
After about three minutes (i.e., at about t=3 min.), 12.3 microliters of one of the ICMA solutions were dispensed into wells containing permeabilized cells to yield final assay concentrations of 5 micrograms/milliliter oligomycin, 2 micromolar rotenone, 1 micromolar FCCP, 1 micromolar RU360, and MM-T (no ICMA).
Cells were exposed to a second calcium pulse by the addition of 13.7 microliters of MM-T, 120 micromolar Ca^2+, to the cells after an additional 3 minutes (i.e., at about t=6 min.).

[2] = tested on: calcium uniporter (CaUP); assay: Calcium uniporter (CaUP) functional assay, suspended permeabilized L6 cells, FLIPR; assay type: cell-based, rat; details: 5 microgram/milliliter oligomycin and 2 micromolar rotenone together, 16 micromolar Ca^2+; FIG. 9
Procedure: A series of functional assays were performed on non-adherent cell lines in order to optimize the mitochondria Ca—UP assay on FLIPR using Calcium-Green-5N and digitonin permeabilized cells. A dose response of Ca^2+ pulses with and without the addition of mitochondria oxidative respiration uncouplers were performed utilizing cells from […]. MM with thapsigarin, MM-T, and digitonin, MM-TD, are prepared as previously described. Ten times (10×) Ca^2+ media is prepared by adding CaCl2 (160 micromolar) to MM-T. The L6 cells were suspended in the cell permeabilizing respiratory media MM-TD at a concentration of 1×10^7 cells per milliliter. […] Emissions resulting from [Ca^2+:Calcium-Green-5N] complexes were monitored at the appropriate wavelength so as to follow changes in intracellular Ca^2+ levels throughout the assay.
Functional assays of the calcium uniporter (CaUP) were similarly performed on non-adherent L6 cells, as described above, with respiratory inhibitors oligomycin and rotenone in order to observe the effects of elimination of the membrane potential using this high throughput FLIPR. […] The emission wavelength was monitored and intracellular Ca^2+ levels observed throughout assay. […] When media with no Ca^2+ is added, the fluorescence changes only minimally (rows 3 and 4)] […]

[3] = tested on: Ca^2+ uniporter; assay: Ca^2+ uniporter assay, adherent permeabilized MixCon cells, Calcium-Green-5N on FLIPR, with respiratory inhibitors; assay type: cell-based; details: 10 micromolar Ca^2+; for Ca^2+-5N fluorescence after the second Ca^2+ pulse, presence of succinate: oligomycin 5 micrograms/milliliter and rotenone 2 micromolar together (MM-GMS-TD-OR), 5 millimolar succinate; for Ca^2+-5N fluorescence after the second Ca^2+ pulse, presence of succinate / Ca^2+-5N fluorescence after the second Ca^2+ pulse, absence of succinate: FIG. 8; for signal corresponding to extramitochondrial calcium after each Ca^2+ pulse: oligomycin 5 micrograms/milliliter or rotenone 2 micromolar, three pulses, FIG. 7; for Ca^2+-5N fluorescence after the second Ca^2+ pulse, absence of succinate: oligomycin 5 micrograms/milliliter, rotenone 2 micromolar, glutamate/malate medium
Procedure: Mitochondrial inhibitors of oxidative phosphorylation, oligomycin and rotenone, were used to observe the effect of decreased membrane potential of mitochondria on cytosol Ca^2+ levels in the adherent cell line MixCon. The adherent MixCon cells in Dulbecco's modified Eagle's medium and 10% FBS growth media were dispensed into wells of a 96-well microtiter plate at a concentration of about 6×10^4 cells in 100 microliters per well 48 hours prior to assay. Just prior to their use the growth media was aspirated from the wells. Ninety (90) microliters of MM-TD with oligomycin (5 micrograms/milliliter) or rotenone (2 micromolar), or MM-TD without either inhibitor, were added to the cells. The plate was placed in a FLIPR™ system, and three doses of the 10× stock (100 micromolar) solution of calcium were dispensed into the different wells at approximately 2 minute intervals with increasing volumes (10, 11.1, and 12.3 microliters respectively), resulting in a constant concentration of 10 micomolar Ca^2+ throughout the course of the assay. Emissions at the 531 nm wavelength were monitored by a FLIPR™ as a measure of extramitochondrial Ca^2+-Green-5N fluorescence. The signal corresponding to extramitochondrial calcium increased after each pulse and, in samples when remained high when in the presence of the two inhibitors. Alternatively, Ca^2+ is sequestered in mitochondria of cells not exposed to inhibitors (FIG. 7).
Another assay was performed to examine the effect by the respiratory inhibitors oligomycin and rotenone and subsequent release of Ca^2+ from mitochondria in the presence or absence of succinate in MixCon cells. Two different master mixes (MM and MM-GMS) were prepared with MM prepared as previously described. MM-GMS was prepared by the addition of glutamate, malate and succinate to final concentrations of 5 millimolar each, MgCl2 to a final concentration of 1 millimolar, EGTA to a final concentration of 10 micromolar, and Calcium-Green-5N to a final concentration of 0.1 micromolar, to a basic KCl-based respiratory media (BReM, Table 3). Thapsigargin was added to the MM and MM-GMS to a final concentration of 1 micromolar to yield MM-T and MM-GMS-T (where “T” indicates Thapsigargin and “GMS” indicates glutamate, malate and succinate. The cell permeabilizing agent digitonin was added to MM-T and MM-GMS-T to a final concentration of 0.03% to yield solutions designated as MM-TD and MM-GMS-TD. As indicated in some instances, the mitochondrial inhibitors oligomycin and rotenone (Calbiochem) were each added to solutions of MM-TD and MM-GMS-TD to final concentrations of 5 micrograms/milliliter and 2 micromolar, respectively.
CaCl2 was added to MM-T and MM-GMS-T to a concentration of 50 micromolar Ca^2+ to yield 5× Ca^2+ solutions in MM-T and MM-GMS-T, respectively. Versions of the 5× Ca^2+ stock solutions comprising respiratory inhibitors were also prepared (oligomycin, final concentration of 50 micrograms/milliliter; rotenone, 20 micromolar).
The MixCon cells, in Dulbecco's modified Eagle's medium and 10% FBS growth media, were dispensed into wells of a 96-well Costar 3603 microtiter plate at a concentration of 6×10^4 cells in one hundred microliters per well, 48 hours prior to the assay. Just prior to their use the growth media was aspirated from the wells. Eighty (80) microliters of MM-TD, MM-GMS-TD, MM-TD-O, MM-TD-R, and MM-GMS-TD-OR (where “O” oligomycin and “R” signifies rotenone) were dispensed into wells containing the cells. The microtiter plate was placed in a FLIPR™ preheated to 37° C. and an initial injection of 20 microliters of the 5× stock solutions (50 micromolar) of Ca^2+, with olygomycin, rotenone or no additions, were dispensed into the appropriate wells such that the Ca^2+ concentration in the assay is 10 micromolar and wells with the inhibitors remain at constant assay concentrations.
A second pulse of 25 microliters of the 5× solution was supplied after approximately 5 minutes. […]

[4] = target: T1, Ca^2+ uniporter; assay: High-throughput uniporter assay of different compounds, permeabilized HepG2 cells with and without thapsigargin, FLIPR II; assay type: cell-based; details: test compounds 1 micromolar
Excerpt: The high-throughput uniporter assay protocol, carried out as described above for suspension cells, was used to determine the effect of different compounds on mitochondria and extramitochondrial Ca^2+ concentrations in the presence or absence of the Ca^2+ uptake inhibitor of the endoplasmic reticulum, thapsigargin (Calbiochem). Agents examined in this assay include calcium channel inhibitors, pro- and anti-oxidants, mitochondrial inhibitors and uncouplers, and the Ca—UP inhibitor Ru360. On the day of the assay, solutions of the respiratory/cell permeabilizing media containing digitonin with thapsigarin (MM-TD) and without thapsigarin (MM-D) were prepared as previously described. Calcium chloride was added to each to a final concentration of 6 micromolar Ca^2+, resulting in MM-TD, 6 uM Ca and MM-D, 6 uM Ca. A MM solution was prepared with a 10× Ca^2+ concentration of 200 micromolar for the second Ca^2+ pulse. The Ca^2+-uniporter inhibitor Ru360 was prepared at a 10× concentration of 100 microliters in MM. Ten times (10×) stock solutions of the other agents were prepared for the assay by the addition of the compounds to final concentrations of 10 micromolar into MM. […] Controls include water and 10% DMSO (Sigma) in MM.
Cells of the HepG2 cell line (hepatocellular carcinoma, ATCC HB-8065) were trypsinized from near-confluent flasks in growth media (Eagle's MEM with non-essential amino acids, sodium pyruvate and Earle's BSS, 90%; FBS 10%). Cells were centrifuged, growth media was aspirated, and cells were resuspended to a concentration of 1×10^7 cells per milliliter in MM-TD, 6 uM Ca, or MM-D, 6 uM Ca. One hundred (100) microliters of the cell suspension (about 1×10^6 cells) were delivered to wells of a microtiter plate. The plate was placed in a FLIPR™ II (used in 96-well format) warmed to 37° C. An 11.1 microliter aliquot of the 10× stock solutions with water or DMSO (controls), Ru360 (Ca—UP inhibitor), or the test compounds, were dispensed into designated wells such that the assay concentration of DMSO is 0.1%, Ru360 is 10 micromolar, and each of the test compounds are at 1 micromolar concentrations. After an additional three minutes, a second addition of 12.3 microliters of the 10× CaCl2 (200 micromolar Ca^2+), was dispensed into the wells of the microtiter plate resulting in assay concentrations of 20 micromolar Ca^2 (Extramitochondrial Ca^2+ bound to the calcium indicator dye was monitored throughout and profiles of each assay; the results are presented in FIG. 12, with all thapsigargin minus (thaps−) assays in wells corresponding to columns 1-6 and thapsigargin plus (thaps+) assays in wells corresponding to columns 7-12.

SMILES	release of sequestered Ca^2+ from mitochondria after addition of the agent [1]	mitochondrial uptake of the second Ca^2+ pulse [1]	mitochondrial sequestration of added Ca^2+ [2]	Ca^2+-5N fluorescence after the second Ca^2+ pulse, presence of succinate [3]	signal corresponding to extramitochondrial calcium after each Ca^2+ pulse [3]	Ca^2+-5N fluorescence after the second Ca^2+ pulse, absence of succinate [3]	uniporter activity profile after the 20 micromolar Ca^2+ pulse [4]
CC[C@H]1/C=C/C=C/C[C@@H](C)[C@H](O)[C@@](C)(O)C(=O)[C@@H](C)[C@H](O)[C@@H](C)C(=O)[C@@H](C)[C@H](O)[C@@H](C)/C=C/C(=O)O[C@@H]2[C@H](C)[C@H](CC1)O[C@]1(CC[C@H](C)[C@H](C[C@@H](C)O)O1)[C@H]2C [oligomycin]	caused the release of Ca^2+ from mitochondria into the cytosol	could not sequester the added Ca^2+	Ca^2+ is not sequestered in the mitochondria	reduction of Ca^2+-5N fluorescence after the second Ca^2+ pulse	remained high	elevated levels of Ca^2+-5N fluorescence after the second Ca^2+ pulse	
C=C(C)[C@H]1Cc2c(ccc3c2O[C@@H]2COc4cc(OC)c(OC)cc4[C@@H]2C3=O)O1 [rotenone]	caused the release of Ca^2+ from mitochondria into the cytosol	could not sequester the added Ca^2+	Ca^2+ is not sequestered in the mitochondria	reduction of Ca^2+-5N fluorescence after the second Ca^2+ pulse	remained high	elevated levels of Ca^2+-5N fluorescence after the second Ca^2+ pulse	Ca^2+ can no longer be sequestered by the mitochondria
